Several values for one entry are separate records, joined by “and”; a condition that tells them apart may be missing. Equal values may be shown once. Read-outs that look alike come from different tables or passages of the source.
Legend:
[1] = target: C. elegans complex II (succinate dehydrogenase) (Caenorhabditis elegans, UniProt O62215+P41956+Q09545); assay: In vitro complex II activity assay, C. elegans mitochondria; assay type: biochemical; conditions: for Percent in vitro activity, Complex II (single replicate Rep1-Rep4): individual biological replicates, 100 µM
How it was run: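 Mitochondria isolated from adult C. elegans were diluted to 0.2 mg/mL protein and assayed for complex II by the DCIP-coupled method. A600 was read every 30 s over 15 min, with initial linear slope expressed as percent of solvent control. Screening was at 100 μM (≥3 biological replicates), followed by dose-response.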

[2] = system: C. elegans complex III (decylubiquinol-cytochrome C reductase); assay: In vitro complex III activity assay, C. elegans mitochondria; assay type: biochemical, Caenorhabditis elegans; conditions: for % Activity Complex III: 100 µM compound, relative to solvent control, mean (SEM); for Percent in vitro activity, Complex III (single replicate Rep1-Rep4) / Percent in vitro activity, Complex III (Mean): 100 μM of NPD compound, C. elegans mitochondria; for Percent in vitro activity, Complex III (single replicate Rep1-Rep4): individual biological replicates; for Percent in vitro activity, Complex III (Mean): mean of four biological replicates
How it was run: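 Mitochondria were isolated from adult C. elegans by bead-beating and differential centrifugation, then used at 0.2 mg/mL protein. Antimycin A-sensitive complex III activity was followed as decylubiquinol-driven cytochrome C reduction at 550 nm every 30 s for 15 min. Initial linear slopes were expressed as percent of solvent control.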

[3] = 100 µM compound, relative to solvent control, mean (SEM), read-out: % Activity Complex II
[4] = 100 μM of NPD compound, C. elegans mitochondria
[5] = 100 μM of NPD compound, C. elegans mitochondria, mean of four biological replicates, read-out: Percent in vitro activity, Complex II (Mean)

Sequence of C. elegans complex II (succinate dehydrogenase) (P41956 30-182): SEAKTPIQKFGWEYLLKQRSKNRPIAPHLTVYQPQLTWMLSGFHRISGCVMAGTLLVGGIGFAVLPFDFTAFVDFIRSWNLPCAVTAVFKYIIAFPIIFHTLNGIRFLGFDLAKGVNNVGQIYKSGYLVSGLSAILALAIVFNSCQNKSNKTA
Sequence of C. elegans complex II (succinate dehydrogenase) (Q09545 22-298): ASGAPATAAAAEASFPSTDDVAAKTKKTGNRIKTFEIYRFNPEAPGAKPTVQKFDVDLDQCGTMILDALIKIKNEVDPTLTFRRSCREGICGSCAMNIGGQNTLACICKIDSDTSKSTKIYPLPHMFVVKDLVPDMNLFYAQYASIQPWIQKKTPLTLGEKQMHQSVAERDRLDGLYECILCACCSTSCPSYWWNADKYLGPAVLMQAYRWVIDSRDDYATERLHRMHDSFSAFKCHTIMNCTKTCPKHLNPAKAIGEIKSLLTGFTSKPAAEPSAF
Sequence of C. elegans complex II (succinate dehydrogenase) (Q09508 32-646, further chain): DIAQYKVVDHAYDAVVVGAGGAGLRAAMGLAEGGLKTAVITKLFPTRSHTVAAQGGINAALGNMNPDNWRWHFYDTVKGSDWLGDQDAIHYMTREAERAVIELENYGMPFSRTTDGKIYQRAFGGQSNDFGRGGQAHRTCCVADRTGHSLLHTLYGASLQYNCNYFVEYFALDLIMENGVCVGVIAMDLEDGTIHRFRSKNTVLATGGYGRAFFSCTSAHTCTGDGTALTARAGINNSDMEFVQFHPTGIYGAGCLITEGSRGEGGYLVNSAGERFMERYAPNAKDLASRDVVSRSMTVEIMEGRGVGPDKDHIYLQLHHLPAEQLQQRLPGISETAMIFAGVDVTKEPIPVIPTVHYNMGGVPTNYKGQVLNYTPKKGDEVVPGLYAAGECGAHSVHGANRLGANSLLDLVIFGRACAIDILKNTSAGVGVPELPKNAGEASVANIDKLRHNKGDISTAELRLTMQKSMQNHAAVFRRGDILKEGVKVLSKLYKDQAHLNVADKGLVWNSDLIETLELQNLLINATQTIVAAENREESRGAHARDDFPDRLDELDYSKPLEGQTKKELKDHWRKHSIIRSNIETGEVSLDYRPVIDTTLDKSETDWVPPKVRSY
Sequence of C. elegans complex II (succinate dehydrogenase) (O62215 31-145): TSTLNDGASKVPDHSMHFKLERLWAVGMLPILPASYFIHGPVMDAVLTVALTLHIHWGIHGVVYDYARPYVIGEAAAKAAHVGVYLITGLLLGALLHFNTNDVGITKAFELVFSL

Structure (SMILES) | activity at 100 µM [1, 3] [%] | Percent in vitro activity, Complex II (single replicate Rep1-Rep4) [1, 4] | activity at 100 µM [1, 5] [%] | % Activity Complex III [2] | Percent in vitro activity, Complex III (single replicate Rep1-Rep4) [2] | Percent in vitro activity, Complex III (Mean) [2] [%]
CC(C)Cc1ccc(C(C)c2nc3ccccc3n2C)cc1 (stereo not drawn) [NPD8790] | 99.7 | 81.090% and 92.425% and 103.697% and 121.642% | 99.7 | 63.54 (0.90) % | 58.669% and 65.835% and 63.074% and 66.590% | 63.542
COc1cc2c(cc1OC)C(/C=C/c1ccc(N(C)C)cc1)=NCC2 [NPD6303] | 101 | 124.122% and 89.817% and 91.578% and 100.352% | 101 | 78.10 (1.39) % | 81.950% and 83.314% and 71.366% and 75.773% | 78.101
COc1cc2c(cc1OC)C(C(C)c1ccc(CC(C)C)cc1)=NCC2 (stereo not drawn) [NPD10504] | 106 | 86.801% and 136.285% and 101.347% and 99.840% | 106 | 79.51 (1.51) % | 86.667% and 75.479% and 82.250% and 73.635% | 79.508

From paper PMC11079024, “Identification of a family of species-selective complex I inhibitors as potential anthelmintics” (Nature Communications, 2024)
